According to patent publication US20070004660A1, “Synergistic Modulation of Flt3 Kinase Using Alkylquinolines and Alkylquinazolines” (priority 2005, published 2007):
pIC50: −log10 of the molar value.

Target: T1, wild-type FLT3 receptor (Homo sapiens, UniProt P36888)
T1 construct: host or cells: Baf3 (murine B cell lymphoma line), stably transfected
T1 sequence (P36888 27-993): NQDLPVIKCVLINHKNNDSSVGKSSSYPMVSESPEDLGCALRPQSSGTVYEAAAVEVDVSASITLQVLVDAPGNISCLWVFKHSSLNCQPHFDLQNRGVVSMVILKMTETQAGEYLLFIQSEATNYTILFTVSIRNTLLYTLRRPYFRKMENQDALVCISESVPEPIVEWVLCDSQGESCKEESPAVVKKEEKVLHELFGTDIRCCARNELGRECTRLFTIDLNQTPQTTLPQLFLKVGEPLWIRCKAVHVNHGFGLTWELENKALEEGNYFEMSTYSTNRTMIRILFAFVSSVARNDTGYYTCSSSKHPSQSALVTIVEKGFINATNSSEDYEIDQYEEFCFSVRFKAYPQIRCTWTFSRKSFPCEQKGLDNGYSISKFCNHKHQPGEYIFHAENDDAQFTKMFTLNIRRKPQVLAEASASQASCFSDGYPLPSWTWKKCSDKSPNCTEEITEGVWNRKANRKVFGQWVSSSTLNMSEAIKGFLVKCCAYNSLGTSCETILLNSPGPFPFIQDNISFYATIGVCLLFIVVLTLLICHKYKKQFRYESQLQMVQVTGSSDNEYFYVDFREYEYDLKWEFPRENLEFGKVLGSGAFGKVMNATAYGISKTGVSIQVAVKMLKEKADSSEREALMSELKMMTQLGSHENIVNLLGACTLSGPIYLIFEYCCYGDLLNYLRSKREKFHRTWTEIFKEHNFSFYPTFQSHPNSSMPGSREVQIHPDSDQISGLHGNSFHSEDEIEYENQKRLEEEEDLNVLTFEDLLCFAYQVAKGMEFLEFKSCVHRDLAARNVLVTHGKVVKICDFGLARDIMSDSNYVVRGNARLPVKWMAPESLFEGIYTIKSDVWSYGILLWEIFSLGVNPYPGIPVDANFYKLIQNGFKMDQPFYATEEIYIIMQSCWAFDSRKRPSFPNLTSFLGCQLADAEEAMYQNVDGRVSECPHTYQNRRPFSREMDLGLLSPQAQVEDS
Test: Cell-based FLT3 receptor ELISA (FLT ligand-induced phosphorylation in Baf3 FLT3 cells)
Conditions: 100 ng/mL Flt ligand, uncertainty ±20%
Outline: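 Receptor phosphotyrosine measured by sandwich ELISA (anti-FLT3 capture, HRP anti-pTyr, luminescence) in FLT3-transfected murine Baf3 cells given 1 h compound pretreatment and 10 min 100 ng/mL FLT ligand after overnight low-serum starvation; triplicates, IC50 from nonlinear regression.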

pIC50	SMILES
7.07	O=C(Nc1ccc(N2CCOCC2)cc1)N1CCC(c2ncnc3cc(OCCC4CCCCN4)ccc23)CC1 (stereo not shown) [Example 98, 4-[7-(2-Piperidin-2-yl-ethoxy)-quinazolin-4-yl]-piperidine-1-carboxylic acid (4-morpholin-4-yl-phenyl)-amide]
7.85	CN1CCC(COc2ccc3c(C4CCN(C(=O)Nc5ccc(N6CCCC6)nc5)CC4)ncnc3c2)CC1 [Example 99, 4-[7-(1-Methyl-piperidin-4-ylmethoxy)-quinazolin-4-yl]-piperidine-1-carboxylic acid (6-pyrrolidin-1-yl-pyridin-3-yl)-amide]
8.10	CC(C)Oc1ccc(NC(=O)N2CCC(c3ncnc4cc(N(C)C)ccc34)CC2)cc1 [Example 100, 4-(7-Dimethylamino-quinazolin-4-yl)-piperidine-1-carboxylic acid (4-isopropoxy-phenyl)-amide]
7.38	CC(C)Oc1ccc(NC(=O)N2CCC(c3ncnc4ccc(OCCCN5CCCC5=O)cc34)CC2)cc1 [Example 101, 4-{6-[3-(2-Oxo-pyrrolidin-1-yl)-propoxy]-quinazolin-4-yl}-piperidine-1-carboxylic acid (4-isopropoxy-phenyl)-amide]
8.30	CC(C)Oc1ccc(NC(=O)N2CCC(c3ncnc4cc(NCCCN5CCN(C)CC5)ccc34)CC2)cc1 [Example 102, 4-{7-[3-(4-Methyl-piperazin-1-yl)-propylamino]-quinazolin-4-yl}-piperidine-1-carboxylic acid (4-isopropoxy-phenyl)-amide]
7.89	CC(C)Oc1ccc(NC(=O)N2CCC(c3ncnc4cc(N5CCN(C)CC5)ccc34)CC2)cc1 [Example 103, 4-[7-(4-Methyl-piperazin-1-yl)-quinazolin-4-yl]-piperidine-1-carboxylic acid (4-isopropoxy-phenyl)-amide]
7.80	CN1CCN(CCCOc2ccc3c(C4CCN(C(=O)Nc5ccc(N6CCCC6)nc5)CC4)ncnc3c2)CC1 [Example 104, 4-{7-[3-(4-Methyl-piperazin-1-yl)-propoxy]-quinazolin-4-yl}-piperidine-1-carboxylic acid (6-pyrrolidin-1-yl-pyridin-3-yl)-amide]
7.01	CN1CCN(CCCOc2ccc3c(C4CCN(C(=O)Nc5cnc(N6CCCC6)nc5)CC4)ncnc3c2)CC1 [Example 105, 4-{7-[3-(4-Methyl-piperazin-1-yl)-propoxy]-quinazolin-4-yl}-piperidine-1-carboxylic acid (2-pyrrolidin-1-yl-pyrimidin-5-yl)-amide]
7.28	CN1CCC(COc2ccc3c(C4CCN(C(=O)Nc5ccc(N6CCOCC6)nc5)CC4)ncnc3c2)CC1 [Example 108, 4-[7-(1-Methyl-piperidin-4-ylmethoxy)-quinazolin-4-yl]-piperidine-1-carboxylic acid (6-morpholin-4-yl-pyridin-3-yl)-amide]
8.00	CN1CCC(COc2ccc3c(C4CCN(C(=O)Nc5ccc(N6CCCC6)cc5)CC4)ncnc3c2)CC1 [Example 109, 4-[7-(1-Methyl-piperidin-4-ylmethoxy)-quinazolin-4-yl]-piperidine-1-carboxylic acid (4-pyrrolidin-1-yl-phenyl)-amide]
7.10	O=C(NCCCOc1ccc2c(C3CCN(C(=O)Nc4ccc(N5CCCC5)nc4)CC3)ncnc2c1)N1CCOCC1 [Example 112, Morpholine-4-carboxylic acid (3-{4-[1-(6-pyrrolidin-1-yl-pyridin-3-ylcarbamoyl)-piperidin-4-yl]-quinazolin-7-yloxy}-propyl)-amide]
8.05	CCN1CCN(CCCOc2ccc3c(C4CCN(C(=O)Nc5ccc(N6CCOCC6)cc5)CC4)ncnc3c2)CC1 [Example 115, 4-{7-[3-(4-Ethyl-piperazin-1-yl)-propoxy]-quinazolin-4-yl}-piperidine-1-carboxylic acid (4-morpholin-4-yl-phenyl)-amide]
7.60	O=C(Nc1ccc(N2CCOCC2)cc1)N1CCC(c2ncnc3cc(OCCCN4CCN(CCO)CC4)ccc23)CC1 [Example 116, 4-(7-{3-[4-(2-Hydroxy-ethyl)-piperazin-1-yl]-propoxy}-quinazolin-4-yl)-piperidine-1-carboxylic acid (4-morpholin-4-yl-phenyl)-amide]
7.06	CC(=O)N1CCN(CCCOc2ccc3c(C4CCN(C(=O)Nc5ccc(N6CCOCC6)cc5)CC4)ncnc3c2)CC1 [Example 117, 4-{7-[3-(4-Acetyl-piperazin-1-yl)-propoxy]-quinazolin-4-yl}-piperidine-1-carboxylic acid (4-morpholin-4-yl-phenyl)-amide]
8.00	CS(=O)(=O)N1CCN(CCCOc2ccc3c(C4CCN(C(=O)Nc5ccc(N6CCOCC6)cc5)CC4)ncnc3c2)CC1 [Example 118, 4-{7-[3-(4-Methanesulfonyl-piperazin-1-yl)-propoxy]-quinazolin-4-yl}-piperidine-1-carboxylic acid (4-morpholin-4-yl-phenyl)-amide]
7.43	O=C(Nc1ccc(N2CCOCC2)cc1)N1CCC(c2ncnc3cc(OCCCN4CCC[C@H]4CO)ccc23)CC1 [Example 119, (S)-4-{7-[3-(2-Hydroxymethyl-pyrrolidin-1-yl)-propoxy]-quinazolin-4-yl}-piperidine-1-carboxylic acid (4-morpholin-4-yl-phenyl)-amide]
7.64	CN(C)C(=O)N1CCN(CCCOc2ccc3c(C4CCN(C(=O)Nc5ccc(N6CCOCC6)cc5)CC4)ncnc3c2)CC1 [Example 120, 4-(3-{4-[1-(4-Morpholin-4-yl-phenylcarbamoyl)-piperidin-4-yl]-quinazolin-7-yloxy}-propyl)-piperazine-1-carboxylic acid dimethylamide]
6.93	CC(C)Oc1ccc(NC(=O)N2CCC(c3ncnc4cc(OCCCOS(C)(=O)=O)ccc34)CC2)cc1 [Example 121, Methanesulfonic acid 3-{4-[1-(4-isopropoxy-phenylcarbamoyl)-piperidin-4-yl]-quinazolin-7-yloxy}-propyl ester]
6.96	CS(=O)(=O)OCCCOc1ccc2c(C3CCN(C(=O)Nc4ccc(N5CCOCC5)cc4)CC3)ncnc2c1 [Example 122, Methanesulfonic acid 3-{4-[1-(4-morpholin-4-yl-phenylcarbamoyl)-piperidin-4-yl]-quinazolin-7-yloxy}-propyl ester]
7.20	O=C(Nc1ccc(N2CCOCC2)cc1)N1CCC(c2ncnc3cc(OCCCN4CCCC4)ccc23)CC1 [Example 124, 4-[7-(3-Pyrrolidin-1-yl-propoxy)-quinazolin-4-yl]-piperidine-1-carboxylic acid (4-morpholin-4-yl-phenyl)-amide]
7.18	CN1CCCN(CCCOc2ccc3c(C4CCN(C(=O)Nc5ccc(N6CCOCC6)cc5)CC4)ncnc3c2)CC1 [Example 125, 4-{7-[3-(4-Methyl-[1,4]diazepan-1-yl)-propoxy]-quinazolin-4-yl}-piperidine-1-carboxylic acid (4-morpholin-4-yl-phenyl)-amide]

SMILES	pIC50
CN1CCC(COc2ccc3c(C4CCN(C(=O)Nc5ccc(OC6CCC6)nc5)CC4)ncnc3c2)CC1 [Example 107, 4-[7-(1-Methyl-piperidin-4-ylmethoxy)-quinazolin-4-yl]-piperidine-1-carboxylic acid (6-cyclobutoxy-pyridin-3-yl)-amide]	7.68
